Measured values: patent publication US7816535B2, “Vinyl-phenyl derivatives for inflammation and immune-related uses” (Synta Pharmaceuticals Corp., priority 2006, dated 2010)
Counter-ions that a name gives are not always drawn.

Test system: IL-2 production
Assay: Inhibition of IL-2 production in PHA-activated Jurkat cells (ELISA)
Assay type: cell-based
Conditions: Homo sapiens, Jurkat, 20 h, PHA 2.5 μg/mL, IL-2 ELISA
Procedure: Jurkat cells were placed in a 96 well plate (0.5 million cells per well in 1% FBS medium) then a test compound of this invention was added at different concentrations. After 10 minutes, the cells were activated with PHA (final concentration 2.5 μg/mL) and incubated for 20 hours at 37° C. under CO2. The final volume was 200 μL. Following incubation, the cells were centrifuged and the supernatants collected and stored at −70° C. prior to assaying for IL-2 production. A commercial ELISA kit (IL-2 Eli-pair, Diaclone Research, Besancon, France) was used to detect production of IL-2, from which dose response curves were obtained. The IC50 value was calculated as the concentration at which 50% of maximum IL-2 production after stimulation was inhibited versus a non-stimulation control.

Compound | IC50
CCOC(=O)N1CCC(C)=C(c2ccc(NC(=O)c3snnc3C)cc2)C1 [Compound 47, 4-Methyl-[1,2,3]thiadiazole-5-carboxylic acid [4-(1-ethoxycarbonyl-4-methyl-1,2,5,6-tetrahydro-pyridin-3-yl)-phenyl]-amide] | 411 nM
CCOC(=O)N1CCC(C)=C(c2ccc(NC(=O)c3ccncc3C)cc2)C1 [Compound 48, N-[4-(1-ethoxycarbonyl-4-methyl-1,2,5,6-tetrahydro-pyridin-3-yl)-phenyl]-3-methyl-isonicotinamide] | 156 nM
COC(=O)N1CCC(C)=C(c2ccc(NC(=O)c3c(F)cccc3F)cc2)C1 [Compound 49, 2,6-Difluoro-N-[4-(1-methoxycarbonyl-4-methyl-1,2,5,6-tetrahydro-pyridin-3-yl)-phenyl]-benzamide] | 16.2 nM
CC1=C(c2ccc(NC(=O)c3ccncc3C)cc2)CN(C(=O)OCc2ccccc2)CC1 [Compound 51, N-[4-(1-benzyloxycarbonyl-4-methyl-1,2,5,6-tetrahydro-pyridin-3-yl)-phenyl]-3-methyl-isonicotinamide] | 153 nM
CC1=C(c2ccc(NC(=O)c3ccncc3F)cc2)CN(C(=O)Oc2ccc([N+](=O)[O-])cc2)CC1 [Compound 52, N-{4-[1-(4-nitro-phenyloxycarbonyl)-4-methyl-1,2,5,6-tetrahydro-pyridin-3-yl]-phenyl}-3-fluoro-isonicotinamide] | 651 nM
C=CCOC(=O)N1CCC(C)=C(c2ccc(NC(=O)c3ccncc3F)cc2)C1 [Compound 53, N-[4-(1-allyloxycarbonyl-4-methyl-1,2,5,6-tetrahydro-pyridin-3-yl)-phenyl]-3-fluoro-isonicotinamide] | 81.3 nM
C=CCOC(=O)N1CCC(c2ccc(NC(=O)c3c(F)cccc3F)cc2)=C(C)C1 [Compound 54, 2,6-Difluoro-N-[4-(1-allyloxycarbonyl-3-methyl-1,2,5,6-tetrahydro-pyridin-4-yl)-phenyl]-benzamide] | 235 nM
CC1=C(c2ccc(NC(=O)c3c(F)cccc3F)cc2)CCN(C(=O)Oc2ccccc2)C1 [Compound 55, 2,6-Difluoro-N-[4-(1-phenyloxycarbonyl-3-methyl-1,2,5,6-tetrahydro-pyridin-4-yl)-phenyl]-benzamide] | 941 nM
CCOC(=O)C1=C(c2ccc(NC(=O)c3c(F)cccc3F)cc2)CCN(C#N)C1 [Compound 56, 2,6-Difluoro-N-[4-(1-cyano-3-ethoxycarbonyl-1,2,5,6-tetrahydro-pyridin-4-yl)-phenyl]-benzamide] | > 1000 nM
CC1=C(c2ccc(NC(=O)c3ccncc3F)cc2)CN(C#N)CC1 [Compound 57] | > 1000 nM
CC1=C(c2ccc(NC(=O)c3c(F)cccc3F)cc2)CN(C#N)CC1 [Compound 58, 2,6-Difluoro-N-[4-(1-cyano-4-methyl-1,2,5,6-tetrahydro-pyridin-3-yl)-phenyl]-benzamide] | > 1000 nM
CC1=C(c2ccc(NC(=O)c3ccncc3C)cc2)CN(c2nccs2)CC1 [Compound 59, N-[4-(1-thiazol-2-yl-4-methyl-1,2,5,6-tetrahydro-pyridin-3-yl)-phenyl]-3-methyl-isonicotinamide] | 48.9 nM
CCS(=O)(=O)N1CCC(C)=C(c2ccc(NC(=O)c3ccncc3C)cc2)C1 [Compound 60, N-[4-(1-ethanesulfonyl-4-methyl-1,2,5,6-tetrahydro-pyridin-3-yl)-phenyl]-3-methyl-isonicotinamide] | 229 nM
CC1=C(c2ccc(NC(=O)c3ccncc3C)cc2)CN(S(=O)(=O)c2ccccc2)CC1 [Compound 61, N-[4-(1-phenylsulfonyl-4-methyl-1,2,5,6-tetrahydro-pyridin-3-yl)-phenyl]-3-methyl-isonicotinamide] | 164 nM
CC(=O)N1CCC(C)=C(c2ccc(NC(=O)c3c(F)cccc3F)cc2)C1 [Compound 62, 2,6-Difluoro-N-[4-(1-acetyl-4-methyl-1,2,5,6-tetrahydro-pyridin-3-yl)-phenyl]-benzamide] | 431 nM
CC1=C(c2ccc(NC(=O)c3c(F)cccc3F)cc2)CN(C(=O)C2CC2)CC1 [Compound 63, 2,6-Difluoro-N-[4-(1-cyclopropylcarbonyl-4-methyl-1,2,5,6-tetrahydro-pyridin-3-yl)-phenyl]-benzamide] | 182 nM
CC1=C(c2ccc(NC(=O)c3c(F)cccc3F)cc2)CN(C(=O)c2cccnc2)CC1 [Compound 64] | 962 nM

Compound | IC50
CC1=C(c2ccc(NC(=O)c3ccncc3F)cc2)CN(c2nccs2)CC1 [Compound 65, N-[4-(1-thiazol-2-yl-4-methyl-1,2,5,6-tetrahydro-pyridin-3-yl)-phenyl]-3-fluoro-isonicotinamide] | 7.7 nM
CC1=C(c2ccc(NC(=O)c3ccncc3F)cc2)CN(c2ccccn2)CC1 [Compound 66, N-[4-(1-pyridin-2-yl-4-methyl-1,2,5,6-tetrahydro-pyridin-3-yl)-phenyl]-3-fluoro-isonicotinamide] | 42.1 nM
CC1=C(c2ccc(NC(=O)c3c(F)cccc3F)cc2)CN(c2nc3ccccc3o2)CC1 [Compound 68, 2,6-Difluoro-N-[4-(1-benzooxazol-2-yl-4-methyl-1,2,5,6-tetrahydro-pyridin-3-yl)-phenyl]-benzamide] | 95.3 nM
CC1=C(c2ccc(NC(=O)c3ccncc3F)cc2)CN(CC2CC2)CC1 [Compound 69, N-[4-(1-cyclopropylmethyl-4-methyl-1,2,5,6-tetrahydro-pyridin-3-yl)-phenyl]-3-fluoro-isonicotinamide] | > 1000 nM
CC1=C(c2ccc(NC(=O)c3c(F)cccc3F)cc2)CN(c2ncco2)CC1 [Compound 70, 2,6-Difluoro-N-[4-(1-oxazol-2-yl-4-methyl-1,2,5,6-tetrahydro-pyridin-3-yl)-phenyl]-benzamide] | 12.4 nM
CC1=C(c2ccc(NC(=O)c3ccncc3F)cc2)CN(c2ncco2)CC1 [Compound 71, N-[4-(1-oxazol-2-yl-4-methyl-1,2,5,6-tetrahydro-pyridin-3-yl)-phenyl]-3-fluoro-isonicotinamide] | 44 nM
CC1=C(c2ccc(NC(=O)c3c(F)cccc3F)nc2)CN(c2nccs2)CC1 [Compound 72, 2,6-Difluoro-N-[5-(1-thiazol-2-yl-4-methyl-1,2,5,6-tetrahydro-pyridin-3-yl)-pyridin-2-yl]-benzamide, hydrochloride] | 35 nM
CC1=C(c2ccc(NC(=O)c3c(F)cccc3F)cc2)CN(C(N)=S)CC1 [Compound 73, 2,6-Difluoro-N-[4-(1-thiocarbamoyl-4-methyl-1,2,5,6-tetrahydro-pyridin-3-yl)-phenyl]-benzamide] | 456 nM
CC1=C(c2ccc(NC(=O)c3ncncc3C)cc2)CN(c2nccs2)CC1 [Compound 77, 5-Methyl-pyrimidine-4-carboxylic acid [4-(1-thiazol-2-yl-4-methyl-1,2,5,6-tetrahydro-pyridin-3-yl)-phenyl]-amide] | 99.3 nM
O=CC1=C(c2ccc(NC(=O)c3c(F)cccc3F)cc2)CN(c2nccs2)CC1 [Compound 78, 2,6-Difluoro-N-[4-(1-thiazol-2-yl-4-formyl-1,2,5,6-tetrahydro-pyridin-3-yl)-phenyl]-benzamide] | 227 nM
CC1=C(c2ccc(NC(=O)c3c(F)cccc3F)cc2)CN(c2nc(C)co2)CC1 [Compound 80, 2,6-Difluoro-N-{4-[1-(4-methyl-oxazol-2-yl)-4-methyl-1,2,5,6-tetrahydro-pyridin-3-yl]-phenyl}-benzamide] | 98.5 nM
CC1=C(c2ccc(NC(=O)c3ncncc3C)cc2)CN(c2nc(C)c(C)o2)CC1 [Compound 81, 5-Methyl-pyrimidine-4-carboxylic acid {4-[1-(4,5-dimethyl-oxazol-2-yl)-4-methyl-1,2,5,6-tetrahydro-pyridin-3-yl]-phenyl}-amide] | > 1000 nM
CC1=C(c2ccc(NC(=O)c3c(F)cccc3F)cc2)CN(c2nc(C)c(C)o2)CC1 [Compound 82, 2,6-Difluoro-N-{4-[1-(4,5-dimethyl-oxazol-2-yl)-4-methyl-1,2,5,6-tetrahydro-pyridin-3-yl]-phenyl}-benzamide] | 59.5 nM
CC1=C(c2ccc(NC(=O)c3ccncc3F)cc2)CN(c2nnnn2C)CC1 [Compound 85, N-{4-[1-(1-methyl-1H-tetrazol-5-yl)-4-methyl-1,2,5,6-tetrahydro-pyridin-3-yl]-phenyl}-3-fluoro-isonicotinamide] | 44.1 nM
CC1=C(c2ccc(NC(=O)c3ccncc3F)cc2)CN(c2cncnc2)CC1 [Compound 90, N-[4-(1-pyrimidin-5-yl-4-methyl-1,2,5,6-tetrahydro-pyridin-3-yl)-phenyl]-3-fluoro-isonicotinamide] | 126 nM
CC1=C(c2ccc(NC(=O)c3c(F)cccc3F)cc2)CCN(c2nccs2)C1 [Compound 91, 2,6-Difluoro-N-[4-(1-thiazol-2-yl-3-methyl-1,2,5,6-tetrahydro-pyridin-4-yl)-phenyl]-benzamide] | 226 nM

Same assay, conditions: PHA 2.5 μg/mL, 20 hours, IL-2 ELISA, dihydrochloride

Compound | IC50
CC1=C(c2ccc(NC(=O)c3ccncc3F)cc2)CN(c2nccs2)CC1 [Compound 74, N-[4-(1-thiazol-2-yl-4-methyl-1,2,5,6-tetrahydro-pyridin-3-yl)-phenyl]-3-fluoro-isonicotinamide, dihydrochloride] | 5 nM

Same assay, conditions: PHA 2.5 μg/mL, 20 hours, IL-2 ELISA, hydrochloride

Compound | IC50
CCOC(=O)N1CCC(C)=C(c2ccc(NC(=O)c3ccncc3C)cc2)C1 [Compound 50, N-[4-(1-ethoxycarbonyl-4-methyl-1,2,5,6-tetrahydro-pyridin-3-yl)-phenyl]-3-methyl-isonicotinamide, hydrochloride] | 177 nM
CC1=C(c2ccc(NC(=O)c3c(F)cccc3F)cc2)CN(c2nccs2)CC1 [Compound 75, 2,6-Difluoro-N-[4-(1-thiazol-2-yl-4-methyl-1,2,5,6-tetrahydro-pyridin-3-yl)-phenyl]-benzamide, hydrochloride] | 11 nM
